≈ marks a conversion by molar mass, not a printed value.
Columns and labels:
Assay in all cases: ≥ marks a high value that may be exact or a test limit, other limits are often not marked, values filed in µg/mL are converted to µM
[1] = test system: Enterococcus faecium
[2] = test system: Enterococcus faecalis VR
[3] = test system: Pseudomonas aeruginosa KCTC 1637
[4] = test system: Staphylococcus epidermidis KCTC 1917
[5] = test system: Enterococcus faecium VR
[6] = test system: Staphylococcus aureus MR
[7] = test system: Staphylococcus aureus KCTC 1621
[8] = test system: Escherichia coli KCTC 1682
[9] = test system: Salmonella typhimurium KCTC 1926
[10] = test system: Bacillus subtilis KCTC 3068
[11] = test system: Enterococcus faecalis
[12] = test system: Salmonella enterica subsp. enterica serovar Enteritidis
[13] = test system: Micrococcus luteus A270
[14] = test system: Escherichia coli
[15] = test system: Listeria innocua
[16] = test system: Salmonella typhimurium
[17] = test system: Candida albicans
[18] = test system: Staphylococcus aureus
[19] = test system: Serratia marcescens
[20] = test system: Streptococcus pneumoniae
[21] = test system: Cryptococcus neoformans
[22] = test system: Bacillus subtilis
[23] = test system: Pseudomonas putida
[24] = test system: Saccharomyces cerevisiae
[25] = test system: Streptococcus mutans
[26] = test system: Escherichia coli ATCC 25922
[27] = test system: Candida albicans ATCC 90028
[28] = test system: Klebsiella pneumoniae ATCC 700603
[29] = test system: Pseudomonas aeruginosa ATCC 27853
[30] = test system: Acinetobacter baumannii ATCC 19606
[31] = test system: Staphylococcus aureus ATCC 43300
[32] = test system: Cryptococcus neoformans ATCC 208821
[33] = test system: Salmonella enterica subsp. enterica serovar Typhimurium ATCC 14028
[34] = test system: Staphylococcus aureus ATCC BAA-44
[35] = test system: Klebsiella pneumoniae ATCC 13883
[36] = test system: Staphylococcus aureus ATCC 25923
[37] = test system: Enterococcus faecalis ATCC 29212
[38] = test system: Staphylococcus epidermidis ATCC 51625
[39] = test system: Streptococcus pyogenes ATCC 19615

Compound	MIC [1] [µM]	MIC [2] [µM]	MIC [3] [µM]	MIC [4] [µM]	MIC [5] [µM]	MIC [6] [µM]	MIC [7] [µM]	MIC [8] [µM]	MIC [9] [µM]	MIC [10] [µM]	MIC [11] [µM]	MIC [14] [µM]	MIC [22] [µM]	further results
CSCC[C@H](NC(=O)[C@H](C)NC(=O)[C@H](CC(C)C)NC(=O)[C@H](CS)NC(=O)[C@H](Cc1cnc[nH]1)NC(=O)[C@H](C)NC(=O)[C@H](C)N)C(=O)N[C@@H](CCCN=C(N)N)C(=O)N[C@@H](CCCN=C(N)N)C(=O)N[C@@H](CCCCN)C(N)=O [AAHCLAMRRK]	30	30	30	30	7.5	30	30	30	30	15	30	–	–	–
CC(C)C[C@H](NC(=O)[C@H](CS)NC(=O)[C@H](CCCN=C(N)N)NC(=O)[C@H](C)NC(=O)[C@H](C)N)C(=O)N[C@@H](CO)C(=O)N[C@@H](CCC(N)=O)C(=O)N[C@@H](CCCN=C(N)N)C(=O)N[C@@H](CCCN=C(N)N)C(=O)N[C@@H](CCCCN)C(N)=O [AARCLSQRRK]	30 (≈ 35.6 µg/mL)	30 (≈ 35.6 µg/mL)	30 (≈ 35.6 µg/mL)	15 (≈ 17.8 µg/mL)	30 (≈ 35.6 µg/mL)	30 (≈ 35.6 µg/mL)	30 (≈ 35.6 µg/mL)	30 (≈ 35.6 µg/mL)	15 (≈ 17.8 µg/mL)	30 (≈ 35.6 µg/mL)	30 (≈ 35.6 µg/mL)	–	–	–
CC[C@H](C)[C@H](NC(=O)[C@H](CS)NC(=O)[C@H](Cc1cnc[nH]1)NC(=O)[C@H](CC(C)C)NC(=O)[C@H](C)N)C(=O)N[C@@H](C)C(=O)N[C@@H](CC(C)C)C(=O)N[C@@H](CCCN=C(N)N)C(=O)N[C@@H](CCCCN)C(=O)N[C@@H](CCCCN)C(N)=O [ALHCIALRKK]	15 (≈ 17.3 µg/mL)	15 (≈ 17.3 µg/mL)	15 (≈ 17.3 µg/mL)	15 (≈ 17.3 µg/mL)	3.8 (≈ 4.38 µg/mL)	7.5 (≈ 8.64 µg/mL)	7.5 (≈ 8.64 µg/mL)	15 (≈ 17.3 µg/mL)	15 (≈ 17.3 µg/mL)	7.5 (≈ 8.64 µg/mL)	15 (≈ 17.3 µg/mL)	–	–	–
CC(C)C[C@H](N)C(=O)N[C@@H](C)C(=O)N[C@@H](Cc1cnc[nH]1)C(=O)N[C@@H](CCCN=C(N)N)C(=O)N[C@@H](Cc1ccc(O)cc1)C(=O)N[C@@H](Cc1cnc[nH]1)C(=O)O [LAHRYH]	–	–	–	–	–	–	–	–	–	–	–	2 (≈ 1.59 µg/mL)	–	MIC [12]: 9 µM (≈ 7.16 µg/mL); MIC [13]: 9 µM (≈ 7.16 µg/mL); MIC [15]: 10 µM (≈ 7.96 µg/mL)
CC(C)C[C@H](NC(=O)CNC(=O)[C@H](C)NC(=O)[C@@H](N)CCCN=C(N)N)C(=O)N[C@@H](CCC(N)=O)C(=O)N[C@@H](Cc1ccccc1)C(=O)N[C@@H](CC(C)C)C(=O)N[C@H](C(=O)NCC(=O)N[C@@H](CCCN=C(N)N)C(=O)N[C@H](C(=O)N[C@@H](Cc1cnc[nH]1)C(=O)N[C@@H](CCCN=C(N)N)C(=O)N[C@@H](CC(C)C)C(=O)N[C@@H](CC(C)C)C(=O)N[C@@H](CCCN=C(N)N)C(=O)N[C@@H](CCCCN)C(=O)O)C(C)C)C(C)C [RAGLQFLVGRVHRLLRK]	–	–	–	–	–	–	–	–	–	–	–	15.8 (≈ 32 µg/mL)	15.8 (≈ 32 µg/mL)	MIC [16]: 7.92 µM (≈ 16 µg/mL); MIC [17]: 7.92 µM (≈ 16 µg/mL); MIC [18]: 15.8 µM (≈ 32 µg/mL); MIC [19]: 31.7 µM (≈ 64 µg/mL); MIC [20]: 15.8 µM (≈ 32 µg/mL); MIC [21]: 7.92 µM (≈ 16 µg/mL); MIC [23]: 7.92 µM (≈ 16 µg/mL); MIC [24]: 7.92 µM (≈ 16 µg/mL); MIC [25]: 15.8 µM (≈ 32 µg/mL)
CC(C)C[C@H](NC(=O)[C@H](CC(C)C)NC(=O)[C@H](CCCN=C(N)N)NC(=O)[C@H](Cc1cnc[nH]1)NC(=O)[C@@H](NC(=O)[C@H](CCCN=C(N)N)NC(=O)[C@H](CCCN=C(N)N)NC(=O)[C@H](CC(C)C)NC(=O)[C@H](CC(C)C)NC(=O)[C@H](CCCN=C(N)N)NC(=O)[C@H](Cc1cnc[nH]1)NC(=O)[C@@H](NC(=O)[C@H](CCCN=C(N)N)NC(=O)[C@H](CCCN=C(N)N)NC(=O)[C@H](CC(C)C)NC(=O)[C@H](CC(C)C)NC(=O)[C@H](CCCN=C(N)N)NC(=O)[C@H](Cc1cnc[nH]1)NC(=O)[C@@H](NC(=O)[C@@H](N)CCCN=C(N)N)C(C)C)C(C)C)C(C)C)C(=O)N[C@@H](CCCN=C(N)N)C(=O)O [RVHRLLRRVHRLLRRVHRLLR]	–	–	–	–	–	–	–	–	–	–	–	45.5 (≈ 128 µg/mL)	2.85 (≈ 8 µg/mL)	MIC [16]: 1.42 µM (≈ 4 µg/mL); MIC [17]: > 91.1 µM; MIC [18]: 22.8 µM (≈ 64 µg/mL); MIC [19]: 22.8 µM (≈ 64 µg/mL); MIC [20]: ≥ 45.5 µM; MIC [21]: ≥ 45.5 µM; MIC [23]: 22.8 µM (≈ 64 µg/mL); MIC [24]: ≥ 91.1 µM; MIC [25]: 11.4 µM (≈ 32 µg/mL)
NC(N)=NCCC[C@H](NC(=O)[C@H](Cc1cnc[nH]1)NC(=O)[C@H](CO)NC(=O)[C@H](CCCN=C(N)N)NC(=O)[C@H](CCCN=C(N)N)NC(=O)[C@H](CS)NC(=O)[C@H](CCCN=C(N)N)NC(=O)[C@H](Cc1cnc[nH]1)NC(=O)[C@H](Cc1cnc[nH]1)NC(=O)[C@@H](N)CO)C(=O)N[C@@H](CS)C(=O)O [SHHRCRRSHRC]	–	–	–	–	–	–	–	–	–	–	–	–	–	MIC [26]: > 22.3 µM; MIC [27]: 22.3 µM (≈ 32 µg/mL); MIC [28]: > 22.3 µM; MIC [29]: > 22.3 µM; MIC [30]: > 22.3 µM; MIC [31]: > 22.3 µM; MIC [32]: 22.3 µM (≈ 32 µg/mL)
CC(C)C[C@H](NC(=O)[C@H](CCCN=C(N)N)NC(=O)[C@H](CO)NC(=O)[C@H](Cc1cnc[nH]1)NC(=O)[C@H](CCCN=C(N)N)NC(=O)[C@@H]1CCCN1C(=O)[C@H](CCCN=C(N)N)NC(=O)[C@H](Cc1cnc[nH]1)NC(=O)[C@@H]1CCCN1C(=O)[C@H](CO)NC(=O)[C@H](CC(C)C)NC(=O)[C@H](CO)NC(=O)[C@H](CCCN=C(N)N)NC(=O)[C@H](CCCCN)NC(=O)[C@@H](NC(=O)[C@@H](NC(=O)CNC(=O)[C@H](CCCN=C(N)N)NC(=O)[C@H](Cc1cnc[nH]1)NC(=O)[C@H](Cc1c[nH]c2ccccc12)NC(=O)[C@H](Cc1ccccc1)NC(=O)[C@H](Cc1cnc[nH]1)NC(=O)[C@H](Cc1ccc(O)cc1)NC(=O)[C@@H](N)Cc1ccc(O)cc1)C(C)C)[C@@H](C)O)C(=O)N[C@@H](CCC(N)=O)C(=O)N[C@@H](CCCN=C(N)N)C(=O)O [YYHFWHRGVTKRSLSPHRPRHSRLQR]	–	–	–	–	–	–	–	–	–	–	–	2 (≈ 6.72 µg/mL)	2 (≈ 6.72 µg/mL)	MIC [33]: 4 µM (≈ 13.4 µg/mL); MIC [34]: 6 µM (≈ 20.2 µg/mL); MIC [35]: 2 µM (≈ 6.72 µg/mL); MIC [36]: 4 µM (≈ 13.4 µg/mL); MIC [37]: 4 µM (≈ 13.4 µg/mL); MIC [38]: 6 µM (≈ 20.2 µg/mL); MIC [29]: 4 µM (≈ 13.4 µg/mL); MIC [39]: 4 µM (≈ 13.4 µg/mL)

— DBAASP
